{"source": "paper PMC3743129", "about": "(ACS medicinal chemistry letters, 2013)", "key": {"[1]": {"tested_on": "a number of different viruses", "details": "cited from earlier work"}, "[2]": {"assay_type": "in vitro ADME"}, "in vitro": {"test": "in vitro", "assay_type": "in vitro ADME"}, "MeV-Edm": {"tested_on": "MeV-Edm", "test": "microbe, parasite or virus in culture", "assay_type": "cell-based", "details": "Measles morbillivirus, read-out: EC50 against MeV strain Edmonston"}}, "note": "Marks after values point to notes of the source that are not given here.", "data": [{"smiles": "COc1ccc(-n2c(SC(C)C(=O)Nc3ccc(C)cc3Cl)nc3ccccc32)cc1", "note": "(stereo not drawn) [Compound 1]", "values": [{"measurement": "activity against a number of different viruses in cell culture", "setting": "[1]", "value": "low nanomolar activity"}]}, {"smiles": "C#CCn1c([S+](=O)([O-])Cc2ccc(F)cc2)nc(-c2ccccc2)c1-c1ccccc1", "note": "[Compound 3]", "values": [{"measurement": "S9 stability T1/2 hamster", "setting": "[2]", "value": "<2.5", "unit": "min"}]}, {"smiles": "O=S(=O)(Cc1ccccc1)c1nc(-c2ccccc2)c(-c2ccccc2)[nH]1", "note": "[Compound 13a]", "values": [{"measurement": "S9 stability T1/2 hamster", "setting": "[2]", "value": "<2.5", "unit": "min"}]}, {"smiles": "Cn1c(S(=O)(=O)Cc2ccccc2)nc(-c2ccccc2)c1-c1ccccc1", "note": "[Compound 13b]", "values": [{"measurement": "metabolite peak in LC-MS, % of total area", "setting": "in vitro; human, 20 min, 100 μM", "value": 91, "unit": "%"}, {"measurement": "half-life", "setting": "in vitro; human, s9", "value": "2 to 12", "unit": "min"}, {"measurement": "S9 stability T1/2 human", "setting": "in vitro; s9", "value": "2-12^b min"}, {"measurement": "S9 stability T1/2 hamster", "setting": "[2]", "value": "<2.5^b min"}]}, {"smiles": "Cn1c(S(=O)(=O)Cc2ccc(F)cc2)nc(-c2ccc(F)cc2)c1-c1ccc(F)cc1", "note": "[Compound 13c]", "values": [{"measurement": "S9 stability T1/2 hamster", "setting": "[2]", "value": "<2.5^b min"}]}, {"smiles": "CN(Cc1nc(-c2ccccc2)c(-c2ccccc2)n1C)c1ccccc1", "note": "[Compound 28a]", "values": [{"measurement": "EC50", "setting": "MeV-Edm", "value": 810, "unit": "nM"}]}]}
